Data published in US12351628B2, “Modified membrane spanning proteins and methods for the preparation and use thereof” (priority 2014, dated 2025).
≈ marks a conversion by molar mass, not a printed value. Read-outs that look alike come from different tables or passages of the source.

Tested on: E. coli strains (e.g. BL21 or DH10beta)
Test: Growth of E. coli on LB medium with varying antibiotic concentrations (MIC), liquid and agar plates
Type: cell-based
Conditions: for Antibiotic concentration to which resistance is conferred: E. coli transformed with isolated mutated GPR55 clones; for MIC: Escherichia coli
Description: The construct library containing modified genes is then used to transform E. coli strains (e.g. BL21 or DH10beta). Growth is tested on LB medium with varying concentrations of kanamycin (MIC for untransformed cells is approximately 10 mg/L), both in liquid and agar plates.

[1] = E. coli containing a plasmid encoding wild type human GPR55
[2] = read-out: Apparent MIC, E. coli expressing certain constructs containing wild type rat NTSR1 (aa 43-424)

Row | Compound | Antibiotic concentration to which resistance is conferred | MIC [1] | MIC [2] | MIC (untransformed E. coli cells, LB medium)
1 | CC1(C)S[C@@H]2[C@H](NC(=O)C(C(=O)O)c3ccccc3)C(=O)N2[C@H]1C(=O)O (stereo partly shown) [carbenicillin] | > 80 mg/L | ~40 µg/mL (≈ 106 µM) | > 75 µg/mL | –
2 | NC[C@H]1O[C@H](O[C@H]2[C@H](O)[C@@H](O[C@H]3O[C@H](CO)[C@@H](O)[C@H](N)[C@H]3O)[C@H](N)C[C@@H]2N)[C@H](O)[C@@H](O)[C@@H]1O [kanamycin] | > 50 mg/L | ~25 µg/mL (≈ 51.6 µM) | > 50 µg/mL | ~10 µg/mL (≈ 20.6 µM)
